According to ChEMBL document CHEMBL1932973, “5- and 6-membered (thio)lactones are prodrug type carbonic anhydrase inhibitors” (Bioorg Med Chem Lett, 2012):

Legend:
Carbonic anhydrase 2 [1] = target: T1, Carbonic anhydrase 2 (Homo sapiens, UniProt P00918); assay: Inhibition of human CA2 pre-incubated for 15 mins to 24 hrs measured after 6 hrs by phenol red-based stopped-flow CO2 hydrase assay
Carbonic anhydrase 9 [2] = target: T2, Carbonic anhydrase 9 (Homo sapiens, UniProt Q16790); assay: Inhibition of human CA9 pre-incubated for 15 mins to 24 hrs measured after 6 hrs by phenol red-based stopped-flow CO2 hydrase assay
Carbonic anhydrase 2 [3] = target: T1, Carbonic anhydrase 2; assay: Inhibition of human CA2 pre-incubated for 15 mins to 24 hrs measured after 15 mins by phenol red-based stopped-flow CO2 hydrase assay
Carbonic anhydrase 1 [4] = target: T3, Carbonic anhydrase 1 (Homo sapiens, UniProt P00915); assay: Inhibition of human CA1 pre-incubated for 15 mins to 24 hrs measured after 15 mins by phenol red-based stopped-flow CO2 hydrase assay
Carbonic anhydrase 9 [5] = target: T2, Carbonic anhydrase 9; assay: Inhibition of human CA9 pre-incubated for 15 mins to 24 hrs measured after 15 mins by phenol red-based stopped-flow CO2 hydrase assay
Carbonic anhydrase 1 [6] = target: T3, Carbonic anhydrase 1; assay: Inhibition of human CA1 pre-incubated for 15 mins to 24 hrs measured after 6 hrs by phenol red-based stopped-flow CO2 hydrase assay

T3 sequence (P00915 whole entry): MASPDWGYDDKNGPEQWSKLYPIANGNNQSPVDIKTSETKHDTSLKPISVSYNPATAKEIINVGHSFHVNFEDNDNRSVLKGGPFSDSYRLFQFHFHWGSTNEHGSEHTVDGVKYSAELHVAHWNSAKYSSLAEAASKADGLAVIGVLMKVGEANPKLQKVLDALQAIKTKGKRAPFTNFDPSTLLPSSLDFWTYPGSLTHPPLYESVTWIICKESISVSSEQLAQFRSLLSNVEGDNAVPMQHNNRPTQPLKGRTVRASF

SMILES	Ki (Carbonic anhydrase 2 [1])	Ki (Carbonic anhydrase 9 [2])	other results
O=c1cccco1	> 100 µM	1.6 µM	
S=c1cccco1	> 100 µM	7.45 µM	
Cc1cc(C)oc(=S)c1	> 100 µM	9.51 µM	
O=C(O)/C=C/CCO			Ki (Carbonic anhydrase 2 [3]): > 100 µM; Ki (Carbonic anhydrase 1 [4]): 8.46 µM; Ki (Carbonic anhydrase 9 [5]): 1.15 µM
CC1CCC(=O)O1 (stereo unspecified)	> 100 µM	0.92 µM	
COC1=CC(=O)OC1	> 100 µM	3.38 µM	
Cc1cc(C)oc(=O)c1	> 100 µM		
O=C1CCCCO1	> 100 µM	3.66 µM	
O=C1C=CCCO1	> 100 µM	1.35 µM	
O=C1C=CCO1 [FURAN-2(5H)-ONE]	> 100 µM		
O=C(O)/C=C/c1ccccc1O [O-COUMARIC ACID]		> 100 µM	Ki (Carbonic anhydrase 1 [6]): 3.4 µM
